This is an account of results in ChEMBL document CHEMBL1138575, “Synthesis of alpha-amyrin derivatives and their in vivo antihyperglycemic activity” (2009).

Common to all, as to format: functional
What all share (parameters): scale not given: the % may be the effect or the level left

The test system of assay [1] is Rattus norvegicus. Description: Antihyperglycemic activity against sucrose-challenged streptozotocin-induced fasted albino Sprague-Dawley rat assessed as reduction in blood glucose at 100 mg/kg, po administered 30 mins before sucrose challenge measured after 24 hrs post sucrose dose.
Assay [2] concerns Rattus norvegicus. Description: Antihyperglycemic activity against sucrose-challenged streptozotocin-induced fasted albino Sprague-Dawley rat assessed as reduction in blood glucose at 100 mg/kg, po administered 30 mins before sucrose challenge measured after 5 hrs post sucrose dose.
In assay [3] the test system is Rattus norvegicus. Description: Antihyperglycemic activity against fasted sucrose-loaded albino rat model assessed as reduction in blood glucose at 100 mg/kg, po administered 30 mins before sucrose challenge measured after 24 hrs post sucrose dose.
For assay [4], the system named is Rattus norvegicus. Description: Antihyperglycemic activity against fasted sucrose-loaded albino rat model assessed as reduction in blood glucose at 100 mg/kg, po administered 30 mins before sucrose challenge measured after 5 hrs post sucrose dose.

SMILES strings stand for the structures.

Regarding `Cc1ccc(C)c(C(=O)O[C@H]2CC[C@]3(C)[C@H]4CC=C5[C@@H]6[C@@H](C)[C@H](C)CC[C@]6(C)CC[C@@]5(C)[C@]4(C)CC[C@H]3C2(C)C)c1`, the values for the Activity in the assay with Rattus norvegicus [1] and in the assay on Rattus norvegicus [2] were 20.2% and 24.9%, respectively.
For the compound `C[C@H]1[C@H](C)CC[C@]2(C)CC[C@]3(C)C(=CC[C@@H]4[C@@]5(C)CC[C@H](OC(=O)CCC(=O)O[C@H]6CC[C@]7(C)[C@H]8CC=C9[C@@H]%10[C@@H](C)[C@H](C)CC[C@]%10(C)CC[C@@]9(C)[C@]8(C)CC[C@H]7C6(C)C)C(C)(C)[C@@H]5CC[C@]43C)[C@H]12`, the Activity in the assay on Rattus norvegicus [1] is 15.6%; with Rattus norvegicus [2] it was 24.3%.
The like results for `COc1ccc(CC(=O)O[C@H]2CC[C@]3(C)[C@H]4CC=C5[C@@H]6[C@@H](C)[C@H](C)CC[C@]6(C)CC[C@@]5(C)[C@]4(C)CC[C@H]3C2(C)C)cc1` were, in that order, 15.6% and 17.5%.
Turning to `C[C@H]1[C@H](C)CC[C@]2(C)CC[C@]3(C)C(=CC[C@@H]4[C@@]5(C)CC/C(=N\N(C(=S)Nc6ccccc6)c6ccc([N+](=O)[O-])cc6[N+](=O)[O-])C(C)(C)[C@@H]5CC[C@]43C)[C@H]12`, the Activity in the assay with Rattus norvegicus [3] is 7.35%; in the assay with Rattus norvegicus [4] it was 1.2%.
For the compound `C[C@H]1[C@H](C)CC[C@]2(C)CC[C@]3(C)C(=CC[C@@H]4[C@@]5(C)CC[C@H](O)C(C)(C)[C@@H]5CC[C@]43C)[C@H]12`, the Activity in the assay with Rattus norvegicus [1] was 8.12%; in the assay on Rattus norvegicus [2], 13.9%.
The like results for `CC(=O)O[C@H]1CC[C@]2(C)[C@H]3CC=C4[C@@H]5[C@@H](C)[C@H](C)CC[C@]5(C)CC[C@@]4(C)[C@]3(C)CC[C@H]2C1(C)C` were, in that order, 17% and 18.4%.
The like results for `C/C=C(\C)C(=O)O[C@H]1CC[C@]2(C)[C@H]3CC=C4[C@@H]5[C@@H](C)[C@H](C)CC[C@]5(C)CC[C@@]4(C)[C@]3(C)CC[C@H]2C1(C)C` were, in that order, 22.6% and 12.7%.
The corresponding values for `C[C@H]1[C@H](C)CC[C@]2(C)CC[C@]3(C)C(=CC[C@@H]4[C@@]5(C)CC[C@H](OC(=O)c6ccccc6C(=O)O)C(C)(C)[C@@H]5CC[C@]43C)[C@H]12` are 16.5% and 11%.
In the case of `C[C@H]1[C@H](C)CC[C@]2(C)CC[C@]3(C)C(=CC[C@@H]4[C@@]5(C)CC[C@H](OC(=O)c6ccc7ccccc7n6)C(C)(C)[C@@H]5CC[C@]43C)[C@H]12`, the values for the Activity in the assay with Rattus norvegicus [1] and in the assay with Rattus norvegicus [2] were 17.8% and 19.6%, respectively.
Consider `C[C@H]1[C@H](C)CC[C@]2(C)CC[C@]3(C)C(=CC[C@@H]4[C@@]5(C)CC[C@H](OC(=O)c6cccnc6)C(C)(C)[C@@H]5CC[C@]43C)[C@H]12`, for which the Activity with Rattus norvegicus [1] is listed as 27.6%; in the assay with Rattus norvegicus [2] it was 18.2%.
For `C[C@H]1[C@H](C)CC[C@]2(C)CC[C@]3(C)C(=CC[C@@H]4[C@@]5(C)CC[C@H](OC(=O)CCCC(=O)c6ccccc6)C(C)(C)[C@@H]5CC[C@]43C)[C@H]12`, the Activity in the assay on Rattus norvegicus [1] worked out at 23.5%; in the assay with Rattus norvegicus [2], 24%.
Consider `C[C@H]1[C@H](C)CC[C@]2(C)CC[C@]3(C)C(=CC[C@@H]4[C@@]5(C)CC[C@H](OC(=O)c6ccc([N+](=O)[O-])cc6)C(C)(C)[C@@H]5CC[C@]43C)[C@H]12`, for which the Activity in the assay on Rattus norvegicus [1] is 27.6%; in the assay on Rattus norvegicus [2], 13.8%.
The like results for `C[C@H]1[C@H](C)CC[C@]2(C)CC[C@]3(C)C(=CC[C@@H]4[C@@]5(C)CC[C@H](OC(=O)CNC(=O)c6ccccc6)C(C)(C)[C@@H]5CC[C@]43C)[C@H]12` were, in that order, 12.1% and 3.15%.
Take `C[C@H]1[C@H](C)CC[C@]2(C)CC[C@]3(C)C(=CC[C@@H]4[C@@]5(C)CC[C@H](OC(=O)c6ccc(Cl)cc6)C(C)(C)[C@@H]5CC[C@]43C)[C@H]12`: the values for the Activity with Rattus norvegicus [1] and in the assay with Rattus norvegicus [2] were 25.6% and 22.1%, respectively.
On to `CN(C)C(=N)NC(=N)N` [METFORMIN], for which the Activity in the assay on Rattus norvegicus [1] is listed as 26.5%; in the assay on Rattus norvegicus [2] it was 23.5%.
